Test results from article PMC10096449, “Anti-SARS-CoV-2 Activity and Cytotoxicity of Amaryllidaceae Alkaloids from Hymenocallis littoralis” (Molecules, 2023).
Like-named read-outs stand apart in the source and are kept apart here.

Experiments:
[1] = test system: SARS-CoV-2; assay: microbe, parasite or virus in culture; assay type: cell-based, SARS-CoV-2 isolate BetaCov/Belgium/GHB-03021/2020; conditions: for EC50: read-out: EC50 (anti-SARS-CoV-2 activity); for IC50: Severe acute respiratory syndrome coronavirus 2
[2] = test system: Vero-E6 cells; conditions: for CC50: single experiment (duplicate experiments listed)
[3] = test system: SARS-CoV-2; design: method as in Zhang et al. [31]; conditions: RT-PCR read-out after 18–24 h; ref Zhang et al. [31]; read-out: EC50 (anti-SARS-CoV-2 activity); cited from earlier work
[4] = design: method as in Zhang et al. [31]; conditions: ref Zhang et al. [31]; cited from earlier work
[5] = test system: SARS-CoV-2; design: method as in Jin et al. [32]; conditions: in Vero cells; ref Jin et al. [32]; read-out: EC50 (anti-SARS-CoV-2 activity); cited from earlier work
[6] = test system: HEK293; design: method as in Jin et al. [32]; conditions: on HEK293; ref Jin et al. [32]; cited from earlier work
[7] = test system: SARS-CoV-2; design: method as in Ren et al. [33]; conditions: in the Vero-E6 cell; ref Ren et al. [33]; read-out: EC50 (anti-SARS-CoV-2 activity); cited from earlier work
[8] = test system: Vero-E6; design: method as in Ren et al. [33]; conditions: ref Ren et al. [33]; cited from earlier work
[9] = test system: Huh-7; design: method as in Ren et al. [33]; conditions: ref Ren et al. [33]; cited from earlier work
[10] = test system: HEK293T; design: method as in Ren et al. [33]; conditions: ref Ren et al. [33]; cited from earlier work
[11] = in vitro; conditions: African green monkey
[12] = Severe acute respiratory syndrome coronavirus 2, 96 h
[13] = CC50 (cytotoxicity on Vero-E6 cells), MTS-assay, absence of virus
[14] = CC50 (µM), single experiment (duplicate experiments listed), Vero-E6 cells
[15] = av. CC50 (µM), average of two experiments, Vero-E6 cells

Row | Compound | antiviral activity against SARS-CoV-2 (in words) [1] | EC50 [1, 12] | IC50 ([1]; read-out: IC50) | IC50 ([1]; read-out: av. IC50) | CC50 [11, 13] | CC50 [11, 14] | CC50 [11, 15] | also measured
1 | O[C@H]1[C@H]2c3cc4c(cc3CN3CCC(=C[C@@H]1O)[C@H]23)OCO4 [Compound 6, lycorine] | lacked selective antiviral activity | > 100 µM | > 100 µM | > 100 µM | 1.2 µM | 1.28 µM | 1.21 µM | CC50 [2]: 1.14 µM; EC50 [3]: 0.18 µM; CC50 [4]: > 40 µM; EC50 [5]: 0.878 ± 0.022 µM; CC50 [6]: > 10 µM; EC50 [7]: 0.439 ± 0.122 µM; CC50 [8]: > 1000 µM; CC50 [9]: 0.834 ± 0.063 µM; CC50 [10]: 1.04 ± 0.0734 µM
2 | O=C1N[C@H]2[C@H](O)[C@H](O)[C@@H](O)[C@H](O)[C@@H]2c2cc3c(c(O)c21)OCO3 [Compound 10, pancratistatin] | lacked selective antiviral activity |  | > 100 µM | > 100 µM | 0.13 µM | 0.14 µM |  | CC50 [2]: 0.122 µM
3 | COc1cc2c(cc1O)[C@@H](OC)O[C@@H]1CC=C3CCN(C)[C@H]3[C@H]21 [Compound 11, 9-O-demethyl-7-O-methyllycorenine] |  | 40 to 77 µM | 99.4 µM | 77.2 µM | > 100 µM | > 100 µM | > 100 µM | 
4 | COc1cc2c(c(O)c1OC)[C@]13CC[C@H](OC)C[C@H]1N(CC3)[C@H]2O [Compound 5, 6β-hydroxyhippeastidine] |  | 44 µM |  |  | > 100 µM |  |  | 
5 | O[C@H]1[C@H]2c3cc4c(cc3CN3CCC(C[C@H]1O)[C@H]23)OCO4 (stereo partly drawn) [Compound 8, zephyranthine] |  | 40 to 77 µM | 37.1 µM | 39.6 µM | > 100 µM | > 100 µM | > 100 µM | EC50 [1]: 39 µM
6 | COc1cc2c(cc1O)[C@@H]1[C@H](O)[C@H](O)C=C3CCN(C2)[C@H]31 (racemic) [Compounds 2 and 3, (±)-2-epi-pseudolycorine] | loss of the antiviral activity | > 100 µM | > 100 µM | > 100 µM | > 100 µM | > 100 µM | > 100 µM | 
7 | [O-]c1cc2c3c(c1)c1cc4c(cc1c[n+]3CC2)OCO4 [Compound 9, ungeremine] | lacked antiviral activity | > 100 µM | > 100 µM | > 100 µM | > 100 µM | > 100 µM | > 100 µM | antiviral activity against SARS-CoV-2 (in words) ([1]; listed as ungeremine): did not improve its anti-SARS-CoV-2 potency; cytotoxicity on Vero-E6 cells (in words) [2]: lacked antiviral activity, as well as cytotoxicity; cytotoxicity on Vero-E6 cells (in words) ([2]; listed as ungeremine): eliminated cytotoxicity on the Vero-E6 cell line
8 | O[C@H]1[C@H]2c3cc4c(cc3CN3CCC(=C[C@H]1O)[C@H]23)OCO4 [Compound 7, 2-epi-lycorine] |  | 54 µM | 69.3 µM | 54.2 µM | > 100 µM | > 100 µM | > 100 µM | 
9 | COc1cc2c(cc1O)[C@@H]1[C@H](O)[C@H](O)C=C3CCN(C2)[C@H]31 [Compound 2, (−)-2-epi-pseudolycorine] | lacked antiviral activity |  |  |  |  |  |  | cytotoxicity on Vero-E6 cells (in words) [2]: lacked antiviral activity, as well as cytotoxicity
10 | Oc1ccc2c3c1OC1CC(O)CCC31CCNC2 (stereo not drawn) [Compound 1, O-demethyl-norlycoramine] |  | 45 µM | 54 µM | 45.8 µM | > 100 µM | > 100 µM | > 100 µM | 
11 | COc1cc2c(cc1O)C1C(O)C(O)C=C3CCN(C2)C31 (single isomer, unassigned; (+)) [Compound 3, (+)-2-epi-pseudolycorine] | lacked antiviral activity |  |  |  |  |  |  | cytotoxicity on Vero-E6 cells (in words) [2]: lacked antiviral activity, as well as cytotoxicity
12 | COc1cc2c(c(O)c1OC)[C@]13CC[C@H](OC)C[C@H]1N(CC3)[C@@H]2O [Compound 4, 6α-hydroxyhippeastidine] |  | 44 µM |  |  | > 100 µM |  |  | 
